Experimental findings from patent US8008303B2, “Biphenyl derivatives and their use in treating hepatitis C” (AstraZeneca AB, priority 2005, dated 2011) are described below.

A word on the IC50: it is the midpoint of a concentration-inhibition curve.

Like-named read-outs stand apart in the source and are kept apart here.

Data set [1] deals with HCV replicon cells Huh 9B. The format is cell-based.
For data set [2], the system named is HCV replicon cells Huh 9B. As to the kind of experiment: HCV replicon assay (luciferase readout). The format is cell-based. The method, boiled down:
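Compounds, made up at twice final strength (final DMSO 1%), were added to subgenomic replicon cells one day after plating. Incubation then ran 72 h at 37 °C, 5% CO2, without G418. Replication was quantified as firefly luciferase luminescence in lysed cells, with cytotoxicity assessed on a duplicate clear plate.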
(In general: A replicon is a self-replicating genome or part of one, used to study replication in cells.)

The mark [3] stands for this setting: concentration reducing total cell area by 50% relative to DMSO controls, methylene blue, absorbance 620 nm, 72 h incubation.
[4] abbreviates: Hepatitis C virus, 72 h, concentration reducing replicon level (luciferase activity) by 50% vs untreated cell control, 72 h incubation.

`Cc1cc(NC(=O)c2ccc(C)c(-c3ccc(C(=O)Nc4ccc(CN5CCS(=O)(=O)CC5)cc4)cc3)c2)sn1` [Example 145, 6-Methyl-biphenyl-3,4′-dicarboxylic acid 4′-{[4-(1,1-dioxo-1lambda*6*-thiomorpholin-4-ylmethyl)-phenyl]-amide} 3-[(3-methyl-isothiazol-5-yl)-amide]]: the TD50 result in data set [1] is recorded as “* (key: * < 50 μM; ** > 50 μM)”. Also, in data set [2], the IC50 was 1000 to 5000 nM.

For `Cc1ccc(NC(=O)c2cn[nH]c2)cc1-c1ccc(C(=O)Nc2ccc(N3CCOCC3)cc2)cc1` [Example 108, 1H-Pyrazole-4-carboxylic acid [6-methyl-4′-(4-morpholin-4-yl-phenylcarbamoyl)-biphenyl-3-yl]-amide], in data set [1] (setting [3]), the TD50 result is given as “** (** > 50 μM)”. Besides, the IC50 in data set [2] (setting [4]) fell in the range of 1000 to 5000 nM.

For `Cc1ccc(NC(=O)CC2CCOCC2)cc1-c1ccc(C(=O)Nc2ccc(CN3CCS(=O)(=O)CC3)cc2)cc1` [Example 171, 2′-Methyl-5′-(2-tetrahydro-pyran-4-yl-acetylamino)-biphenyl-4-carboxylic acid [4-(1,1-dioxo-1lambda*6*-thiomorpholin-4-ylmethyl)-phenyl]-amide], the TD50 entry in data set [1] (setting [3]) was “* (* < 50 μM)”. Moreover, in data set [2] (setting [4]), the IC50 was under 1000 nM.

As for `Cc1ccc(C(=O)Nc2ccc(N3CCOCC3)cc2)cc1-c1ccc(NC(=O)c2ccc(CN3CCS(=O)(=O)CC3)cc2)cc1` [Example 151, 4′-[4-(1,1-Dioxo-1lambda*6*-thiomorpholin-4-ylmethyl)-benzoylamino]-6-methyl-biphenyl-3-carboxylic acid (4-morpholin-4-yl-phenyl)-amide], the TD50 entry in data set [1] (setting [3]) is recorded as “* (* < 50 μM)”. In data set [2] (setting [4]), this compound gave an IC50 of under 1000 nM.

On to `CCCS(=O)(=O)N1CCN(Cc2ccc(NC(=O)c3ccc(-c4cc(NC(=O)[C@@H]5CCCN5)ccc4OC(F)(F)F)cc3)cc2)CC1` [Example 236, (S)-Pyrrolidine-2-carboxylic acid (4′-{4-[4-(propane-1-sulfonyl)-piperazin-1-ylmethyl]-phenylcarbamoyl}-6-trifluoromethoxy-biphenyl-3-yl)-amide], for which, in data set [1] (setting [3]), the TD50 result was “* (* < 50 μM)”. Further, the IC50 in data set [2] (setting [4]) is 1000 to 5000 nM.

In the case of `Cc1ccc(CNCc2cccc(Cl)c2)cc1-c1ccc(C(=O)Nc2ccc(CN3CCS(=O)(=O)CC3)cc2)cc1` [Example 199, 5′-[(3-Chloro-benzylamino)-methyl]-2′-methyl-biphenyl-4-carboxylic acid [4-(1,1-dioxo-1lambda*6*-thiomorpholin-4-ylmethyl)-phenyl]-amide], the TD50 result in data set [1] (setting [3]) is recorded as “* (* < 50 μM)”. Besides, in data set [2] (Hepatitis C virus, concentration reducing replicon level (luciferase activity) by 50% vs untreated cell control, 72 h incubation), the IC50 is 1000 to 5000 nM.

Consider `Cc1ccc(C(=O)Nc2ccc(N3CCOCC3)cc2)cc1-c1ccc(C(=O)NCc2cccc(F)c2)cc1` [Example 5, 6-Methyl-biphenyl-3,4′-dicarboxylic acid 4′-(3-fluoro-benzylamide) 3-[(4-morpholin-4-yl-phenyl)-amide]], for which the TD50 entry in data set [1] is “** (key: * < 50 μM; ** > 50 μM)”. The compound further registered an IC50 in data set [2] of 1000 to 5000 nM.

Turning to `COc1ccc(S(=O)(=O)Nc2ccc(N3CCOCC3)cc2)cc1-c1ccc(C(=O)Nc2ccc(CN3CCS(=O)(=O)CC3)cc2)cc1` [Example 244, 2′-Methoxy-5′-(4-morpholin-4-yl-phenylsulfamoyl)-biphenyl-4-carboxylic acid [4-(1,1-dioxo-1lambda*6*-thiomorpholin-4-ylmethyl)-phenyl]-amide], the TD50 entry in data set [1] (setting [3]) is listed as “* (* < 50 μM)”. The compound further came in with an IC50 in data set [2] (setting [4]) of under 1000 nM.

In the case of `Cc1ccc(C(=O)NCCc2cnc[nH]2)cc1-c1ccc(C(=O)Nc2ccc(CN3CCS(=O)(=O)CC3)cc2)cc1` [Example 127, 6-Methyl-biphenyl-3,4′-dicarboxylic acid 4′-{[4-(1,1-dioxo-1lambda*6*-thiomorpholin-4-ylmethyl)-phenyl]-amide} 3-{[2-(3H-imidazol-4-yl) -ethyl]-amide}], in data set [1], the TD50 entry was “* (key: * < 50 μM; ** > 50 μM)”. The IC50 in data set [2] lay within 1000 to 5000 nM.

As for `CC(=O)Nc1ccc(C)c(-c2ccc(C(=O)Nc3ccc(CN4CCS(=O)(=O)CC4)cc3)cc2)c1` [Example 180, 5′-Acetylamino-2′-methyl-biphenyl-4-carboxylic acid [4-(1,1-dioxo-1lambda*6*-thiomorpholin-4-ylmethyl)-phenyl]-amide], the TD50 entry in data set [1] (setting [3]) is on record as “* (* < 50 μM)”. The IC50 in data set [2] (setting [4]) is under 1000 nM.

`CNCC(=O)Nc1ccc(OC(F)(F)F)c(-c2ccc(C(=O)Nc3ccc(CN4CCN(S(=O)(=O)N(C)C)CC4)cc3)cc2)c1` [Example 240, 5′-(2-Methylamino-acetylamino)-2′-trifluoromethoxy-biphenyl-4-carboxylic acid [4-(4-dimethylsulfamoyl-piperazin-1-ylmethyl)-phenyl]-amide]: in data set [1] (setting [3]), the TD50 entry is given as “* (* < 50 μM)”. The IC50 in data set [2] (setting [4]) was under 1000 nM.

Consider `CS(=O)(=O)N1CCN(Cc2ccc(NC(=O)c3ccc(-c4cc(NC(=O)[C@H]5CCCN5)ccc4Cl)cc3)cc2)CC1` [Example 250, (R)-Pyrrolidine-2-carboxylic acid {6-chloro-4′-[4-(4-methanesulfonyl-piperazin-1-ylmethyl)-phenylcarbamoyl]-biphenyl-3-yl}-amide], for which, in data set [1] (setting [3]), the TD50 entry is “* (* < 50 μM)”. In data set [2] (setting [4]), the IC50 is under 1000 nM.

`Cc1ccc(C(=O)Nc2ccc(N3CCOCC3)cc2)cc1-c1ccc(C(=O)Nc2cccc3cc[nH]c23)cc1` [Example 48, 6-Methyl-biphenyl-3,4′-dicarboxylic acid 4′-[(1H-indol-7-yl)-amide] 3-[(4-morpholin-4-yl-phenyl)-amide]]: the TD50 result in data set [1] is listed as “** (key: * < 50 μM; ** > 50 μM)”. The IC50 in data set [2] fell in the range of 1000 to 5000 nM.

Take `CCCS(=O)(=O)N1CCN(Cc2ccc(NC(=O)c3ccc(-c4cc(C(=O)Nc5ccc(N6CCOCC6)cc5C)ccc4OC)cc3)cc2)CC1` [Example 260, 6-Methoxy-biphenyl-3,4′-dicarboxylic acid 3-[(2-methyl-4-morpholin-4-yl-phenyl)-amide] 4′-({4-[4-(propane-1-sulfonyl)-piperazin-1-ylmethyl]-phenyl}-amide)]: the TD50 result in data set [1] (setting [3]) is “* (* < 50 μM)”. For the same compound, the IC50 in data set [2] is under 1000 nM.

In the case of `O=C(Nc1ccc(CN2CCS(=O)(=O)CC2)cc1)c1ccc(-c2cccc(NC(=O)C3CCCCC3)c2)cc1` [Example 196, 3′-(Cyclohexanecarbonyl-amino)-biphenyl-4-carboxylic acid [4-(1,1-dioxo-1lambda*6*-thiomorpholin-4-ylmethyl)-phenyl]-amide], in data set [1] (setting [3]), the TD50 result is “* (* < 50 μM)”. The IC50 in data set [2] (setting [4]) fell in the range of 1000 to 5000 nM.

As for `Cc1cc(C(=O)Nc2ccc(N3CCOCC3)cc2)ccc1-c1cccc(C(=O)Nc2cccc(Br)c2)c1` [Example 64, 2′-Methyl-biphenyl-3,4′-dicarboxylic acid 3-[(3-bromo-phenyl)-amide] 4′-[(4-morpholin-4-yl-phenyl)-amide]], in data set [1], the TD50 result is listed as “* (key: * < 50 μM; ** > 50 μM)”. The compound further displayed an IC50 in data set [2] of under 1000 nM.

Consider `Cc1ccc(NC(=O)c2ccc(N3CCOCC3)cc2)cc1-c1ccc(C(=O)Nc2ccc3[nH]c(C(F)(F)F)nc3c2)cc1` [Example 85, 2′-Methyl-5′-(4-morpholin-4-yl-benzoylamino)-biphenyl-4-carboxylic acid (2-trifluoromethyl-1H-benzoimidazol-5-yl)-amide], for which the TD50 result in data set [1] (setting [3]) is reported as “** (** > 50 μM)”. In data set [2] (setting [4]), this compound displayed an IC50 of 1000 to 5000 nM.

For `CNCC(=O)Nc1ccc(Cl)c(-c2ccc(C(=O)Nc3ccc(CN4CCN(S(C)(=O)=O)CC4)cc3)cc2)c1` [Example 252, 2′-Chloro-5′-(2-methylamino-acetylamino)-biphenyl-4-carboxylic acid [4-(4-methanesulfonyl-piperazin-1-ylmethyl)-phenyl]-amide], the TD50 entry in data set [1] (setting [3]) is recorded as “* (* < 50 μM)”. Moreover, in data set [2] (setting [4]), the IC50 was under 1000 nM.

In the case of `Cc1ccc(NC(=O)c2ccc(N3CCOCC3)cc2)cc1-c1ccc(C(=O)NCc2cccc(Br)c2)cc1` [Example 88, 2′-Methyl-5′-(4-morpholin-4-yl-benzoylamino)-biphenyl-4-carboxylic acid 3-bromo-benzylamide], in data set [1] (setting [3]), the TD50 entry is listed as “** (** > 50 μM)”. In addition, the IC50 in data set [2] (setting [4]) is 1000 to 5000 nM.

With `Cc1ccc(C(=O)Nc2ccc(C(=O)N(C)C)cc2)cc1-c1ccc(C(=O)Nc2ccc(CN3CCS(=O)(=O)CC3)cc2)cc1` [Example 142, 6-Methyl-biphenyl-3,4′-dicarboxylic acid 3-[(4-dimethylcarbamoyl-phenyl)-amide] 4′-{[4-(1,1-dioxo-1lambda*6*-thiomorpholin-4-ylmethyl)-phenyl]-amide}], the TD50 entry in data set [1] is “* (key: * < 50 μM; ** > 50 μM)”. This compound registered an IC50 in data set [2] of 1000 to 5000 nM.

With `Cc1ccc(C(=O)Nc2ccc(N3CCOCC3)cc2)cc1-c1ccc(NC(=O)c2ccccc2O)cc1` [Example 109, 4′-(2-Hydroxy-benzoylamino)-6-methyl-biphenyl-3-carboxylic acid (4-morpholin-4-yl-phenyl)-amide], the TD50 result in data set [1] (setting [3]) is “* (* < 50 μM)”. For the same compound, the IC50 in data set [2] (setting [4]) fell in the range of 1000 to 5000 nM.

For the compound `Cc1ccc(C(=O)NC2CCCC2)cc1-c1ccc(C(=O)Nc2ccc(CN3CCS(=O)(=O)CC3)cc2)cc1` [Example 148, 6-Methyl-biphenyl-3,4′-dicarboxylic acid 3-cyclopentylamide 4′-{[4-(1,1-dioxo-1lambda*6*-thiomorpholin-4-ylmethyl)-phenyl]-amide}], the TD50 result in data set [1] is on record as “* (key: * < 50 μM; ** > 50 μM)”. This compound yielded an IC50 in data set [2] of 1000 to 5000 nM.

In the case of `Cc1ccc(-c2noc(C3CCCCC3)n2)cc1-c1ccc(C(=O)Nc2ccc(CN3CCS(=O)(=O)CC3)cc2)cc1` [Example 206, 5′-(5-Cyclohexyl-[1,2,4]oxadiazol-3-yl)-2′-methyl-biphenyl-4-carboxylic acid [4-(1,1-dioxo-1lambda*6*-thiomorpholin-4-ylmethyl)-phenyl]-amide], the TD50 result in data set [1] (setting [3]) was “* (* < 50 μM)”. This compound had an IC50 in data set [2] (setting [4]) of over 5000 nM.
